In data set [1] the test system is enzyme activities of various proteins. In words: Enzyme activities of detergent-treated samples after heating. In kind it is biochemical. Particulars: detergent treated samples heated to 100° C. in the presence of β-mercaptoethanol. The text has this: Native protein activity was retained after solubilization in CTAB. Enzyme activities of various proteins in CTAB with their activities when solubilized in SDS, or Tx-100 were compared. […] The relative effect of detergent solubilization on native activity varied from protein to protein and, therefore, must be determined empirically.

The conditions of data set [2]: α-NH2 group; cited from earlier work.
Another data set relates to Alkaline phosphatase. The data set can be described thus: Alkaline phosphatase activity after detergent solubilization. The note with it: 0.5% detergent; compared to SDS; relative to Tx-100 (100%). It counts as biochemical. Here is the method: (§1) FIG. 4 is a graphical depiction of the effect of detergent solubilization on enzyme activities. Enzyme activities were determined in the presence of 0.5% Tx-100, SDS, or CTAB as described in the Examples. The activities were expressed relative to that in Tx-100 solubilized samples (100%). […] Alkaline phosphatase and horseradish peroxidase were purchased from Sigma. Ca^2+ -ATPase activity was measured in microsomes prepared from day-17 chick chorioallantoic membrane, Oakley et al., Anal. Biochem., 105:361-363 (1980). NAD dependent isocitrate dehydrogenase (ICD) and lactate dehydrogenase (LDH) activities were measured in detergent extracts of JEG-3 human choriocarcinoma cells
(§2) Ca^2+ -ATPase activity was assayed by the method of Tuan and Knowles, J. Biol. Chem., 259:2754-2763 (1984), without further modification. Alkaline phosphatase, lactate dehydrogenase, and isocitrate dehydrogenase activities were measured using protocols supplied with their respective diagnostic kits.

For another data set, the system named is horseradish peroxidase. In words: Horseradish peroxidase activity after detergent solubilization. In kind it is biochemical. Particulars: 0.5% detergent; compared to SDS; relative to Tx-100 (100%).
The subject of data set [3] is NAD dependent isocitrate dehydrogenase (ICD). The data set can be described thus: NAD dependent isocitrate dehydrogenase activity in detergent extracts. Particulars: 0.5% detergent; JEG-3 cell extracts; compared to SDS; relative to Tx-100 (100%). It counts as biochemical, human. As for the experimental part: as §1, §2
For data set [4], the system named is lactate dehydrogenase (LDH). In words: Lactate dehydrogenase activity in detergent extracts. In kind it is biochemical, human. Particulars: 0.5% detergent; JEG-3 cell extracts; relative to Tx-100 (100%). As for the experimental part: as §1, §2
A further data set deals with Ca2+-ATPase. In words: Ca2+-ATPase activity in detergent-solubilized chorioallantoic membrane microsomes. In kind it is biochemical. The note with it: 0.5% detergent; day-17 chick CAM microsomes; relative to Tx-100 (100%). As for the experimental part: as §1, §2

The values below come from US5275708A, “Cetyltrimethylammonium bromide gel electrophoresis” (Thomas Jefferson University, priority 1992, dated 1994).

Experimental for horseradish peroxidase: Spectrophotometric Assays. Peroxidase activity was assayed at room temperature using a solution of 0.5 mg/ml diaminobenzidine in 10 mM sodium phosphate buffered 0.9% saline (pH 7.2), containing 0.1% hydrogen peroxide. Reactions were allowed to proceed for 5 minutes, and then were stopped by the addition of 10 mM sodium sulfide to 100 μM. Absorbance at 480 nm was used to determine the degree of product formation.

Take `CCCCCCCCCCCCOS(=O)(=O)[O-].[Na+]` [SDS, sodium dodecylsulfate]: in data set [1], the “Enzyme activity after heating” value was “lost all activity”.
For `NCCCC[C@H](N)C(=O)O` [lysine], in data set [2], the pKa result is recorded as “≈ 9.06”.
Consider `CCCCCCCCCCCCCCCC[N+](C)(C)C.[Br-]` [CTAB, Cetyltrimethylammonium bromide], for which the “Enzyme activity (AP) in detergent” value with Alkaline phosphatase is “relatively high levels of enzyme activity”. The “Enzyme activity (HRP) in detergent” value in the data set with horseradish peroxidase is given as “relatively high levels of enzyme activity”. Further, the “Enzyme activity (ICD) in detergent” value in data set [3] is reported as “relatively high levels of enzyme activity”. In data set [4], the “Enzyme activity (LDH) in detergent” value is reported as “lack of activity”. Also, the “Enzyme activity (Ca2+-ATPase) in detergent” value in the data set with Ca2+-ATPase is reported as “significantly affected”. The “Enzyme activity after heating” value in data set [1] is “lost all activity”.
